Assay results: patent US10780081B2, “Method of treating multiple sclerosis employing a LSD1-inhibitor” (ORYZON GENOMICS, S.A., priority 2016, dated 2020)

How the values were obtained:
[1] = test system: immune cells in spleen and lymph nodes; assay: Number of immune cells in spleen and lymph nodes of EAE mice; type: in vivo, C57BL/6 mice; conditions: 0.5 mg/kg p.o., day 26 postimmunization, vs vehicle
Procedure: (§1) Mice were scored daily for signs of EAE, using the scores described in Example 3.1. Animals were sacrificed on day 26 postimmunization and samples were collected and processed as described below. n=10 mice/group.
(§2) Tissue collection and cell isolation. On day 26 postimmunization, spleen, draining lymph nodes (DLNs: cervicals, inguinals and axillaries), and spinal cord were removed. Spinal segments of the cervical and lumbar regions were prepared separately and processed for protein extraction, and histopathological analysis. Single-cell suspensions were obtained from spleen or pooled lymph nodes, the samples were homogenized and total number of cells was quantified using Neubauer chamber.
(§3) Statistical Analysis: Cell number analysis in lymph nodes and spleen: statistical differences are indicated as ***p<0.001 vs vehicle using ANOVA test. Cytokine/chemokine level analysis: statistical differences are indicated as: *p<0.05, **p<0.005, using Mann-Whitney test; unpaired t-test was used for IP-10 level analysis.

[2] = Tolerability at therapeutic doses; type: in vivo
[3] = test system: demyelination and inflammatory cell infiltration in spinal cord; assay: Histopathological analysis of spinal cord in EAE mice (Kluver-Barrera); type: in vivo, C57BL/6 mice; conditions: 0.5 mg/kg p.o., day 26 postimmunization
Procedure: as §1, §2
Processing of samples for histopathological analysis. Cervical and lumbar spinal cord segments were divided and processed for inclusion and sectioning in paraffin. Spinal cord segments were immediately fixed with buffered 10% formalin for 48h, dehydrated and included in paraffin using standard techniques. Transversal sections (4-μm thickness) were stained with Luxol fast blue, cresyl violet, and hematoxylin following the Klüver-Barrera technique and were analyzed for the presence of areas of demyelination and cell infiltration using a light microscope (Leica, DM2000).

[4] = test system: IL-4, IL-6, IL-1beta, IP-10, MCP-1 in spinal cord; assay: Cytokine/chemokine levels in spinal cord of EAE mice by ELISA; type: in vivo, C57BL/6 mice; conditions: 0.5 mg/kg p.o., day 26, vs vehicle
Procedure: as §1
Protein extraction and cytokine/chemokine analysis. Proteins were extracted from cervical and lumbar segments of spinal cord by homogenization (50 mg tissue/[…]) in lysis buffer (50 mM Tris-HCl, pH 7.4, 0.5 mM DTT, and 10 μg/ml proteinase inhibitors PMSF, pepstatin, and leupeptin). Samples were centrifuged (20.000×g, 15 min, 4° C.) and the supernatants were assayed for protein concentration (using Bradford method) and for cytokine/chemokine contents by using specific sandwich ELISAs for IL-4, IL-6, IL-1beta, IP-10 and MCP-1, according to manufacturer's recommendations, using the following antibodies and recombinant proteins:
as §3

[5] = molecular target: T1, Human recombinant MAO-A (Homo sapiens, UniProt P21397); assay: MAO-A kynuramine fluorescence assay; type: biochemical
T1 construct: purchased Sigma Aldrich
T1 sequence (P21397 1-527): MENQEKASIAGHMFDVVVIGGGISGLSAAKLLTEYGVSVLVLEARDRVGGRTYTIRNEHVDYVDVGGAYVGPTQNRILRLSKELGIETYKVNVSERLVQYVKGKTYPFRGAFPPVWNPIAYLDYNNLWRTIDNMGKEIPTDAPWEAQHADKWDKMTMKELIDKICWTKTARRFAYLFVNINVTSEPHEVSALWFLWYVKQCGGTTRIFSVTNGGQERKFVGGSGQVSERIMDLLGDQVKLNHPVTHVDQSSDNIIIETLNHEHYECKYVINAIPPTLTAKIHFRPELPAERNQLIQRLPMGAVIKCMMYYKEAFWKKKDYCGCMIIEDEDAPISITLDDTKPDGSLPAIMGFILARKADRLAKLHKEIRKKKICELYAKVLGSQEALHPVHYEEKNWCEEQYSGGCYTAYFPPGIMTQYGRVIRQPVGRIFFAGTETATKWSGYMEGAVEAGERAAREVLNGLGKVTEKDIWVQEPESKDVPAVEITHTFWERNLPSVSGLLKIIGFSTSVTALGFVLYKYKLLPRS
Description: Human recombinant monoamine oxidase proteins MAO-A and MAO-B were purchased from Sigma Aldrich. MAOs catalyze the oxidative deamination of primary, secondary and tertiary amines. In order to monitor MAO enzymatic activities and/or their inhibition rate by inhibitor(s) of interest, a fluorescence-based (inhibitor)-screening assay was set up. 3-(2-Aminophenyl)-3-oxopropanamine (kynuramine dihydrobromide, Sigma Aldrich), a non fluorescent compound was chosen as a substrate. Kynuramine is a non-specific substrate for both MAO-A and MAO-B activities. While undergoing oxidative deamination by MAO activities, kynuramine is converted into 4-hydroxyquinoline (4-HQ), a resulting fluorescent product.
The monoamine oxidase activity was estimated by measuring the conversion of kynuramine into 4-hydroxyquinoline. […]
After leaving the enzyme(s) interacting with the inhibitor, KM of kynuramine was added to each reaction for MAO-B and MAO-A assay respectively, and the reaction was left for 1 hour at 37° C. in the dark. […] The conversion of kynuramine to 4-hydroxyquinoline, was monitored by fluorescence (excitation at 320 nm, emission at 360 nm) using a microplate reader (Infinite 200, Tecan). Arbitrary units were used to measure levels of fluorescence produced in the absence and/or in the presence of inhibitor.
The IC50 values of each inhibitor were calculated with GraphPad Prism Software.

[6] = molecular target: T2, Human recombinant LSD1 (Homo sapiens, UniProt O60341); assay: LSD1 in vitro biochemical assay (Amplex Red, di-methylated H3-K4 peptide); conditions: read-out: IC50 against LSD1
T2 construct: amino acids 158-end with N-terminal GST tag; GST (N); purchased BPS Bioscience Inc 50100
Description: In order to monitor LSD1 enzymatic activity and/or its inhibition rate by a test compound, di-methylated H3-K4 peptide (Anaspec) was chosen as a substrate. The demethylase activity was estimated, under aerobic conditions, by measuring the release of H2O2 produced during the catalytic process, using the Amplex® Red hydrogen peroxide/peroxidase assay kit (Invitrogen).
Tranylcypromine (Biomol International) was used as a control for inhibition. Within the experiment, each concentration of inhibitor was tested in duplicate. After leaving the enzyme interacting with the inhibitor, KM of di-methylated H3-K4 peptide was added to each reaction and the experiment was left for 30 minutes at 37° C. in the dark. The enzymatic reactions were set up in a 50 mM sodium phosphate, pH 7.4 buffer. […] The conversion of the Amplex® Red reagent to resorufin due to the presence of H2O2 in the assay, was monitored by fluorescence (excitation at 540 nm, emission at 590 nm) using a microplate reader (Infinite 200, Tecan). […] The maximum demethylase activity of LSD1 was obtained in the absence of inhibitor and corrected for background fluorescence in the absence of LSD1. The IC50 value of each inhibitor was calculated with GraphPad Prism Software.

[7] = test system: Experimental Autoimmune Encephalomyelitis (EAE); assay: Experimental autoimmune encephalomyelitis (EAE) model, MOG35-55, daily clinical score; type: in vivo, C57BL/6 mice
Procedure: To induce chronic EAE by active immunization, C57BL/6 mice were immunized s.c. with 100 μg of myelin oligodendrocyte glycoprotein MOG35-55 emulsified in complete Freund's adjuvant (CFA) containing 4 mg/ml Mycobacterium tuberculosis H37 RA. Mice also received i.p. injections of 200 ng of pertussis toxin on days 0 and 2.
Mice were scored daily for signs of EAE according to the following clinical scoring system: 0, no clinical signs; 0.5, partial loss of tail tonicity; 1, complete loss of tail tonicity; 2, flaccid tail and abnormal gait; 3, hind leg paralysis; 4, hind leg paralysis with hind body paresis; 5, hind and fore leg paralysis; and 6, death.
Control mice were orally treated with vehicle [2% v/v Tween-80+98% HPβCD (13% w/v)] following the same regime of administration. Mice were scored daily for signs of EAE according to clinical scoring system described in Example 3.1. n=10 mice/group. […]. […] Mice were scored daily for signs of EAE, using the scores described in Example 3.1. Animals were sacrificed on day 26 postimmunization and samples were collected and processed as described below. n=10 mice/group.

Compound	Number of immune cells retained in spleen and lymph nodes [1]	Tolerability on long-term treatment ([2]; 0.5 mg/kg p.o., mice)	Effects on hematology or circulating lymphocyte counts, gastro-intestinal toxicity ([2]; at therapeutically effective doses, no method or species printed)	Inflammatory cell infiltration and demyelination areas in cervical and lumbar spinal cord [3]	Mean number of demyelination plaques in cervical and lumbar spinal cord [3]	IL-1 beta level in spinal cord [4]	IL-4 level in spinal cord [4]	IL-6 level in spinal cord [4]	IP-10 level in spinal cord [4]	MCP-1 level in spinal cord [4]	IC50 [5]	IC50 [6]	Development of EAE, disease incidence and severity by daily clinical score ([7]; 0.5 mg/kg p.o., Example 4)	Development of EAE, disease incidence and severity by daily clinical score ([7]; 1 or 3 mg/kg p.o., days 12-16 and 19-23 postimmunization)	Mice displaying mild symptoms ([7]; 1 or 3 mg/kg p.o., therapeutic regime)	Mice almost completely recovered ([7]; 1 or 3 mg/kg p.o., 40 days after disease onset)	Dose at which clinical score in EAE is reduced (as low as) ([7]; p.o., tested at 1, 0.5 and 0.05 mg/kg)	Effect on EAE clinical score ([7]; 0.06 and 0.180 mg/kg p.o., same scheme as Example 3.1)
Nc1nnc(CN[C@@H]2C[C@H]2c2ccc(OCc3ccccc3)cc2)o1 (single isomer, unassigned) [Compound 1, (−) 5-((((trans)-2-(4-(benzyloxy)phenyl)cyclopropyl)amino)methyl)-1,3,4-oxadiazol-2-amine]	significant increase	well-tolerated	do not produce clinically relevant effects on hematology or circulating lymphocyte counts	no inflammatory cell infiltration nor demyelination areas were observed	absent or greatly reduced demyelination	reduced	significantly increased	reduced	significantly reduced	significantly reduced	5.3 µM	0.09 µM	greatly inhibited the development of EAE	greatly inhibited the development of EAE	40-70%	30%	≤ 0.05 mg/kg	–
Fc1ccccc1[C@@H]1C[C@H]1NC1CCNCC1 [ORY-LSD1, N-((1R,2S)-2-(2-fluorophenyl)cyclopropyl)piperidin-4-amine, reference compound]	–	–	–	–	–	–	–	–	–	–	–	–	–	–	–	–	–	clear tendency for improvement
